Patent publication US12371748B2, “Genetic markers for predicting responsiveness to therapy with HDL-raising or HDL mimicking agent” (Hoffmann-La Roche Inc., priority 2014, dated 2025)

Test system: patients recently hospitalized for an Acute Coronary Syndrome (ACS)
Test: dal-OUTCOMES pharmacogenomic study: cardiovascular events by ADCY9 genotype (Cox proportional hazards)
Format: in vivo, human
Parameters: key to Responsiveness to treatment: NR = non-responsive; PR = partially responsive; R = responsive
Conditions: for HR, dal-OUTCOMES: per copy of minor allele; for Hazard ratio (dal vs placebo): time to events
Experimental: Dal-OUTCOMES trial (NC20971) was a double blind, randomized, placebo-controlled, parallel group, multi-center, phase III study to assess the safety and efficacy of the CETP inhibitor dalcetrapib in patients recently hospitalized for an Acute Coronary Syndrome (ACS). At time of the interim analysis the study included 15871 randomized patients, distributed over two treatment arms: placebo (7933 patients) and dalcetrapib (600 mg daily; 7938 patients). […] The dal-OUTCOMES study details can be found in G. Schwartz et al., N. Engl. J. Med. 367; 22, 2012.
dal-Outcomes patients were recruited 4 to 12 weeks following hospitalization for acute coronary syndrome characterized by elevated cardiac biomarkers, with symptoms of acute myocardial ischemia, ischemic electrocardiographic abnormalities that were new or presumed to be new, or loss of viable myocardium on imaging. Patients without elevated cardiac biomarkers were eligible to participate if symptoms of acute myocardial ischemia were accompanied by electrocardiographic changes that were new or presumed to be new and by additional evidence of obstructive coronary disease. (Schwartz G G et al. Am Heart J 2009; 158:896-901 e3).
All patients were following individualized programs to target LDL cholesterol levels of 100 mg per deciliter (2.6 mmol per liter) or lower by statin if tolerated and diet. No specific statin agent was specified, and patients were not excluded based on LDL cholesterol values. Patients with serum triglyceride levels of 400 mg per deciliter (4.5 mmol per liter) or higher were excluded. (Schwartz G G et al. N Engl J Med 2012; 367:2089-99) Eligible participants to the dal-Outcomes trial entered a single-blind placebo run-in period of approximately 4 to 6 weeks to allow for patients to stabilise and for completion of planned revascularisation procedures. At the end of the run-in period, eligible patients in stable condition were randomised in a 1:1 ratio to 600 mg of dalcetrapib or placebo on top of evidence-based medical care for acute coronary syndrome. Cardiovascular events were adjudicated by an independent clinical endpoint committee. For the pharmacogenomics study, 6338 patients were recruited from April 2008 through July 2010 at 461 sites in 14 countries and provided written informed consent to participate to the genetic study of the dal-OUTCOMES trial. DNA was extracted from whole blood. Following genomic data cleanup, samples from 5749 Caucasian patients were used for the discovery genome-wide association study (GWAS).
The Illumina Infinium HumanOmni2.5Exome-8v1_A BeadChip including 2,567,845 genetic variants (Illumina, San Diego, California) was used for the discovery GWAS of 5749 Caucasian participants to the dal-OUTCOMES study. The chromosome 16 region including 5 genes upstream and downstream of the adenylate cyclase type 9 (ADCY9) gene (CHR16: 3,400,000-4,600,000) was imputed using IMPUTE2, providing 17,764 variants for analysis with an average completion rate of 99.76%. A Sequenom panel was used for the confirmation of imputed single nucleotide polymorphisms (SNPs) in the ADCY9 gene identified in dal-OUTCOMES and were tested in the dal-PLAQUE-2 study, including 20 SNPs with P values<0.05 from the discovery GWAS.
Genome-wide association study (GWAS)—Genome-wide genotyping was performed using 200 ng of genomic DNA in GLP-environment at the Beaulieu-Saucier Pharmacogenomics Centre (Montreal, Canada). The Illumina Infinium HumanOmni2.5Exome-8v1_A BeadChip (Illumina, San Diego, CA) including 2,567,845 genomic markers was used and processed according to the manufacturer's specifications. This chip includes over 200,000 exome variants identified through the Exome Chip Consortium. The remaining BeadChip content is a mix of rare and common SNPs from the 1000 Genome Project designed to be maximally informative for diverse world populations. Each BeadChip was scanned and analyzed using the Illumina iScan Reader. […]

CCC(CC)CC1(C(=O)Nc2ccccc2SC(=O)C(C)C)CCCCC1 [dalcetrapib, thioisobutyric acid S-(2-{[1-(2-ethyl-butyl)-cyclohexanecarbonyl]-amino}-phenyl) ester]
HR, association of rs2238448 with events in dal-OUTCOMES (dalcetrapib arm, genetic effect): 0.67
Patients with events (dalcetrapib arm, rs1967309 AA): 38
Patients without events (dalcetrapib arm, rs1967309 AA): 447
Patients with events (dalcetrapib arm, rs1967309 AG): 176
Patients without events (dalcetrapib arm, rs1967309 AG): 1203
Patients with events (dalcetrapib arm, rs1967309 GG): 176
Patients without events (dalcetrapib arm, rs1967309 GG): 802
HR, dal-OUTCOMES (rs1967309, Cox additive genetic model): 0.651
HR, dalcetrapib compared to placebo, coronary revascularizations removed from the endpoint (rs1967309 AA): 0.60
Responsiveness to treatment (rs1967309 AA): R
reduction in pre-specified composite endpoint with dalcetrapib compared to placebo (rs1967309 AA (n=961)): 39%
HR, composite endpoint, dalcetrapib compared to placebo (rs1967309 AA (n=961), discovery cohort): 0.61
Hazard ratio (dal vs placebo) (rs1967309 AA): 0.625
Responsiveness to treatment (rs1967309 AG): PR
Hazard ratio (dal vs placebo) (rs1967309 AG): 0.953
Responsiveness to treatment (rs1967309 GG): NR
increase in cardiovascular events, dalcetrapib versus placebo (rs1967309 GG (n=1984)): 27%
HR, cardiovascular events, dalcetrapib versus placebo (rs1967309 GG (n=1984), discovery cohort): 1.27
Hazard ratio (dal vs placebo) (rs1967309 GG): 1.248
response to dalcetrapib in words (rs1967309 heterozygous AG): intermediate response
HR, cardiovascular events, dalcetrapib versus placebo (rs1967309 heterozygous AG (n=2796), discovery cohort): 0.94
HR, dal-OUTCOMES (rs2238448, Cox additive genetic model): 0.671
Responsiveness to treatment (rs2238448 CC): NR
Hazard ratio (dal vs placebo) (rs2238448 CC): 1.291
Responsiveness to treatment (rs2238448 CT): PR
Hazard ratio (dal vs placebo) (rs2238448 CT): 0.974
Responsiveness to treatment (rs2238448 TT): R
Hazard ratio (dal vs placebo) (rs2238448 TT): 0.657
HR, dal-OUTCOMES (rs2239310, Cox additive genetic model): 0.674
Responsiveness to treatment (rs2239310 AA): NR
Hazard ratio (dal vs placebo) (rs2239310 AA): 1.150
Responsiveness to treatment (rs2239310 AG): PR
Hazard ratio (dal vs placebo) (rs2239310 AG): 0.971
Responsiveness to treatment (rs2239310 GG): R
Hazard ratio (dal vs placebo) (rs2239310 GG): 0.623
HR, dal-OUTCOMES (rs2283497, Cox additive genetic model): 0.766
Responsiveness to treatment (rs2283497 GG): NR
Hazard ratio (dal vs placebo) (rs2283497 GG): 1.226
Responsiveness to treatment (rs2283497 GT): PR
Hazard ratio (dal vs placebo) (rs2283497 GT): 0.999
Responsiveness to treatment (rs2283497 TT): R
Hazard ratio (dal vs placebo) (rs2283497 TT): 0.581
HR, dal-OUTCOMES (rs2531967, Cox additive genetic model): 0.734
Responsiveness to treatment (rs2531967 AA): R
Hazard ratio (dal vs placebo) (rs2531967 AA): 0.786
Responsiveness to treatment (rs2531967 AG): PR
Hazard ratio (dal vs placebo) (rs2531967 AG): 0.855
Responsiveness to treatment (rs2531967 GG): NR
Hazard ratio (dal vs placebo) (rs2531967 GG): 1.121
HR, dal-OUTCOMES (rs2531971, Cox additive genetic model): 0.664
Responsiveness to treatment (rs2531971 AA): R
Hazard ratio (dal vs placebo) (rs2531971 AA): 0.660
Responsiveness to treatment (rs2531971 AC): PR
Hazard ratio (dal vs placebo) (rs2531971 AC): 0.965
Responsiveness to treatment (rs2531971 CC): NR
Hazard ratio (dal vs placebo) (rs2531971 CC): 1.254
HR, dal-OUTCOMES (rs3730119, Cox additive genetic model): 0.763
Responsiveness to treatment (rs3730119 AA): R
Hazard ratio (dal vs placebo) (rs3730119 AA): 0.472
Responsiveness to treatment (rs3730119 AG): PR
Hazard ratio (dal vs placebo) (rs3730119 AG): 0.887
Responsiveness to treatment (rs3730119 GG): NR
Hazard ratio (dal vs placebo) (rs3730119 GG): 1.059
HR, dal-OUTCOMES (rs4786454, Cox additive genetic model): 0.668
Responsiveness to treatment (rs4786454 AA): R
Hazard ratio (dal vs placebo) (rs4786454 AA): 0.573
Responsiveness to treatment (rs4786454 AG): PR
Hazard ratio (dal vs placebo) (rs4786454 AG): 0.91
Responsiveness to treatment (rs4786454 GG): NR
Hazard ratio (dal vs placebo) (rs4786454 GG): 1.062
HR, dal-OUTCOMES (rs8049452, Cox additive genetic model): 1.413
Responsiveness to treatment (rs8049452 CC): R
Hazard ratio (dal vs placebo) (rs8049452 CC): 0.804
Responsiveness to treatment (rs8049452 CT): PR
Hazard ratio (dal vs placebo) (rs8049452 CT): 0.971
Responsiveness to treatment (rs8049452 TT): NR
Hazard ratio (dal vs placebo) (rs8049452 TT): 1.543
HR, dal-OUTCOMES (rs8061182, Cox additive genetic model): 1.343
